ChEMBL document CHEMBL3991601, “The target landscape of clinical kinase drugs” (Science, 2017)
The source made the active and inactive calls.

Tests used:
[1] = molecular target: RAC-alpha serine/threonine-protein kinase (Homo sapiens, UniProt P31749)
[2] = molecular target: G protein-coupled receptor kinase 6 (Homo sapiens, UniProt P43250)
[3] = molecular target: T1, Mitogen-activated protein kinase kinase kinase kinase 2 (Homo sapiens, UniProt Q12851)
T1 sequence (Q12851 whole entry): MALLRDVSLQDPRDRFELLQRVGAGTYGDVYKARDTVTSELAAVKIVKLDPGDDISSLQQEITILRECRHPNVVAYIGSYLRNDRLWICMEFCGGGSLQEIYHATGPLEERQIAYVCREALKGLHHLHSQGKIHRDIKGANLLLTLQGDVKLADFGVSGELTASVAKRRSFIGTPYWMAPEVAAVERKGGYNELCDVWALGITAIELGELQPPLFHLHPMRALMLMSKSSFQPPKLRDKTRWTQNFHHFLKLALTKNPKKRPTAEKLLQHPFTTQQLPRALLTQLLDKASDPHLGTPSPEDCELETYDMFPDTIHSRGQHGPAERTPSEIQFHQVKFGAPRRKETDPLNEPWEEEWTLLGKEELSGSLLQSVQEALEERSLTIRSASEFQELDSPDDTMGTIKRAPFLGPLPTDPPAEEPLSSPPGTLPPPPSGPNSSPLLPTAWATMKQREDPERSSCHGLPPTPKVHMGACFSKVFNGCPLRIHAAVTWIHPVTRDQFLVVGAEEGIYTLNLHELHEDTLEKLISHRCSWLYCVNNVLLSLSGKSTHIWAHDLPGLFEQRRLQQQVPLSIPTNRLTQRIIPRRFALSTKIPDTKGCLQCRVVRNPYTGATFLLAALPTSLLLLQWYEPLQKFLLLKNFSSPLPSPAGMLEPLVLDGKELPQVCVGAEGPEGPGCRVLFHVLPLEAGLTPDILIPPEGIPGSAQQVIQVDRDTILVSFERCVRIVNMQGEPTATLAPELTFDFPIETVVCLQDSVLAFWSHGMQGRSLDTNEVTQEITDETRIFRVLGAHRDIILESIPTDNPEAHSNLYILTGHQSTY

[4] = molecular target: MAP/microtubule affinity-regulating kinase 3 (Homo sapiens, UniProt P27448)
[5] = molecular target: T2, Ras-related protein Rab-10 (Homo sapiens, UniProt P61026)
T2 sequence (P61026 whole entry): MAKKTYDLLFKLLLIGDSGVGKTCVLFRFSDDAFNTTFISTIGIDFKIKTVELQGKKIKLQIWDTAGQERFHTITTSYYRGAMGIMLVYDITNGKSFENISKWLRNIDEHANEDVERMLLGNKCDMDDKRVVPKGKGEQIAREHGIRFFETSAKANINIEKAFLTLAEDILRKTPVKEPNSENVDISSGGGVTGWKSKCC

[6] = molecular target: T3, Rab-like protein 3 (Homo sapiens, UniProt Q5HYI8)
T3 sequence (Q5HYI8 whole entry): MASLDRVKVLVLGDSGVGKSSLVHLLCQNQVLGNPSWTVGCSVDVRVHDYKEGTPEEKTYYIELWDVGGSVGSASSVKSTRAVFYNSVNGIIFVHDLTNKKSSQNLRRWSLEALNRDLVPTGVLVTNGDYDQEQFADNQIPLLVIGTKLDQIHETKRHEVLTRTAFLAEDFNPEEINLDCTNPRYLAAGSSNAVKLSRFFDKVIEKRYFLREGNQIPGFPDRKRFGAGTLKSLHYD

[7] = molecular target: Ribosomal protein S6 kinase alpha-1 (Homo sapiens, UniProt Q15418)
[8] = molecular target: T4, STE20-related kinase adapter protein alpha (Homo sapiens, UniProt Q7RTN6)
T4 sequence (Q7RTN6 whole entry): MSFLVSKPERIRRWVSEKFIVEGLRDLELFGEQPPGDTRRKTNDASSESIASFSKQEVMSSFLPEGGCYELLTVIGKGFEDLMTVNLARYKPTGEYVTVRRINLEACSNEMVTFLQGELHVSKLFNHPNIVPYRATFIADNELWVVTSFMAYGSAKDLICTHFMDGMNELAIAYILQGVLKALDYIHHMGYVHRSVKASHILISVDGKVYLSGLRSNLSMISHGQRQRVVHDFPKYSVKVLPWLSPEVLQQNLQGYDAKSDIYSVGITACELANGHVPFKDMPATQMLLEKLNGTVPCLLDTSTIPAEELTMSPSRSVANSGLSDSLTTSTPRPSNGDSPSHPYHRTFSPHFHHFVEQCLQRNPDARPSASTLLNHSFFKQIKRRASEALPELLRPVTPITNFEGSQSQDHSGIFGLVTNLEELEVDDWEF

[9] = molecular target: T5, Serine/threonine-protein kinase ULK1 (Homo sapiens, UniProt O75385)
T5 sequence (O75385 whole entry): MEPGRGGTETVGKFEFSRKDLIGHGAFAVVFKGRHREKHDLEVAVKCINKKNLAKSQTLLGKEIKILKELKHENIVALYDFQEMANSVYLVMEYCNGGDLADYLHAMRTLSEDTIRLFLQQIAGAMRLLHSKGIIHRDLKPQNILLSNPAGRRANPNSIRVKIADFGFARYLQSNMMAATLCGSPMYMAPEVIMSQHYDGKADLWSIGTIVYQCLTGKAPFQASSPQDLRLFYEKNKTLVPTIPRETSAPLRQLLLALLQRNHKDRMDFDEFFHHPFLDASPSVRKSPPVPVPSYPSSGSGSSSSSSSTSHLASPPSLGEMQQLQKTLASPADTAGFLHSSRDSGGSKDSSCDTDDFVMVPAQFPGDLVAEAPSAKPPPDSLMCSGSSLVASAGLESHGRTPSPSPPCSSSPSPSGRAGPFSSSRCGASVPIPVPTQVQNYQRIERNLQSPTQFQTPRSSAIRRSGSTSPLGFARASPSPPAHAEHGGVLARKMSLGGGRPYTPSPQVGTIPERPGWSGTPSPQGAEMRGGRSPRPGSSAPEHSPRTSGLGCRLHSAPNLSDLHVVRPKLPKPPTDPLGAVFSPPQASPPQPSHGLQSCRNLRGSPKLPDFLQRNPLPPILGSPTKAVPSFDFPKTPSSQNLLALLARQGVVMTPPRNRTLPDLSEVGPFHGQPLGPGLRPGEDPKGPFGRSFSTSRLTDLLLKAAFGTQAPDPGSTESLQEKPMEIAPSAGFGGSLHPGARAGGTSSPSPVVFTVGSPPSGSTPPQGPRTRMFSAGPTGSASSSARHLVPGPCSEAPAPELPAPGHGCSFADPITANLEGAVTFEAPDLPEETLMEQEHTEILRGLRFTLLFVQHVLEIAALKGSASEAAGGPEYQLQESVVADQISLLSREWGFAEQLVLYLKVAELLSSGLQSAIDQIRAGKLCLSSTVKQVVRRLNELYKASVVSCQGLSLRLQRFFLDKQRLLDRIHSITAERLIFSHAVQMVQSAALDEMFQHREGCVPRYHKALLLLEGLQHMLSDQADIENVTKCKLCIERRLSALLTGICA
Further: in the data inactive means no Kd found up to 30 µM.

Chain of MAP/microtubule affinity-regulating kinase 3 (P27448 whole entry): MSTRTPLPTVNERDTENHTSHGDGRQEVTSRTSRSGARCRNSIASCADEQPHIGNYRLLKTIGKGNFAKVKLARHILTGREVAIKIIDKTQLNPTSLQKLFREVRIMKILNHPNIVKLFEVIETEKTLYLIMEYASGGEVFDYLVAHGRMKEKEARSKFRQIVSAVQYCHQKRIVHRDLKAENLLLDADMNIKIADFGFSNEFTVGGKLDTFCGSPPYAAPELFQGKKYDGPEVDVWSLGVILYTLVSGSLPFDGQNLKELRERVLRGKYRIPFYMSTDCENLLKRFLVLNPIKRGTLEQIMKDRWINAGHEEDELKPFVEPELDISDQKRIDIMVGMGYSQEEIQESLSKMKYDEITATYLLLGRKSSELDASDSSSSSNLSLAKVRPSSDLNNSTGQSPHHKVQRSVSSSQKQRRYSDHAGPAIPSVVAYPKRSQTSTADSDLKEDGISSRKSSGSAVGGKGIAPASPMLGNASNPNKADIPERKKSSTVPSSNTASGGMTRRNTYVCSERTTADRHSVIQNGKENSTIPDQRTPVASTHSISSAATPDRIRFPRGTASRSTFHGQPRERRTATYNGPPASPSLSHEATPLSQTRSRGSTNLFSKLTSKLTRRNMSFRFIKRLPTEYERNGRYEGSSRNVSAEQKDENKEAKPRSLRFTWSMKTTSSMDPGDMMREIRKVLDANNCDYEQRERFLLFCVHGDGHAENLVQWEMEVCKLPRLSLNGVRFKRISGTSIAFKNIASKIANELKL
Chain of G protein-coupled receptor kinase 6 (P43250 whole entry): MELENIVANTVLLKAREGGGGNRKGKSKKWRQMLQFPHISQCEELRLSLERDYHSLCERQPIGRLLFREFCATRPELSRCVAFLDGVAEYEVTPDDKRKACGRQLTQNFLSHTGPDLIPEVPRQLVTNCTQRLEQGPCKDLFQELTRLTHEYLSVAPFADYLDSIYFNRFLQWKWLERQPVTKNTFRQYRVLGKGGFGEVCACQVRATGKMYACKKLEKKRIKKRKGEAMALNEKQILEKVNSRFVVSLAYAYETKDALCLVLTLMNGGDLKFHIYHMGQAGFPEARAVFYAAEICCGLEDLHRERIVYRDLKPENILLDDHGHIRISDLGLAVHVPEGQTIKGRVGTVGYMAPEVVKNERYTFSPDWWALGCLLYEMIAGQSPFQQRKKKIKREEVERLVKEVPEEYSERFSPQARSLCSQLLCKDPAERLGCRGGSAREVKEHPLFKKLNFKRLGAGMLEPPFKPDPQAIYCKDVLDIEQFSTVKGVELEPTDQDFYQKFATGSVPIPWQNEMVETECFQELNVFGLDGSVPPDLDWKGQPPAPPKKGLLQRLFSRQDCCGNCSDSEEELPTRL
Chain of RAC-alpha serine/threonine-protein kinase (P31749 whole entry): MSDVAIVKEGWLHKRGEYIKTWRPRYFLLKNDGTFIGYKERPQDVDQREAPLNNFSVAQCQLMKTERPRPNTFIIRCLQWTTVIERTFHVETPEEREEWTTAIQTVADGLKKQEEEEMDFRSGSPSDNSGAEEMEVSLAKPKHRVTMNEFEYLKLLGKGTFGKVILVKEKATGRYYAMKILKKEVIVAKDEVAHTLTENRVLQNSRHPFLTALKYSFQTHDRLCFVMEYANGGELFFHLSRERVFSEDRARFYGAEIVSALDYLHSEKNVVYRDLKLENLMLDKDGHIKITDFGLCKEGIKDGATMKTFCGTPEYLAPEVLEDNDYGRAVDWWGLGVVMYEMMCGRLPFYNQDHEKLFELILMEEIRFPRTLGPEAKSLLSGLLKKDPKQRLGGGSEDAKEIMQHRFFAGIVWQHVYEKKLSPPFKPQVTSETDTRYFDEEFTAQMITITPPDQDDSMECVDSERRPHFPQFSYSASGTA
Chain of Ribosomal protein S6 kinase alpha-1 (Q15418 whole entry): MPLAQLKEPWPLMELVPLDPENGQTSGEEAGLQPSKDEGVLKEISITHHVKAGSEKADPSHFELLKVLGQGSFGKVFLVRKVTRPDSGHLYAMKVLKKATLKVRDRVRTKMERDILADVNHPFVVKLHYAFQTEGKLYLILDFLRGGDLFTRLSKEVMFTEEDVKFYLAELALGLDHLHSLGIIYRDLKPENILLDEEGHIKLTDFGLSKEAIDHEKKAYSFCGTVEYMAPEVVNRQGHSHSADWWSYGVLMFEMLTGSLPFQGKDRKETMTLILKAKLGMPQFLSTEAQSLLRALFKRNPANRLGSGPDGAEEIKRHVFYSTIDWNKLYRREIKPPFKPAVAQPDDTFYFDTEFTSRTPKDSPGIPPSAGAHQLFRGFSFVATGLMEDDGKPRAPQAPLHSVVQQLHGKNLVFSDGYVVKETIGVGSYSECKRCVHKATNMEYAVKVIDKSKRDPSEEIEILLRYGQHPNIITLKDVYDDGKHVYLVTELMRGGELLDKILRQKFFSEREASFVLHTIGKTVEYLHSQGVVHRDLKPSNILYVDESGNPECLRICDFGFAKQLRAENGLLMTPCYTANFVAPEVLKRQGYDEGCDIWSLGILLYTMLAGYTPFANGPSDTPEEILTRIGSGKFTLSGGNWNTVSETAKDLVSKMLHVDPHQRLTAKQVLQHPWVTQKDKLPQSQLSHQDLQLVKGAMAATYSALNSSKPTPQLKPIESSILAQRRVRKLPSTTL

Row | SMILES | Kd [1] | Kd [2] | Kd [3] | Kd [4] | Kd [5] | Kd [6] | Kd [7] | Kd [8] | Kd [9]
1 | CO[C@H]1C[C@@H]2CC[C@@H](C)[C@@](O)(O2)C(=O)C(=O)N2CCCC[C@H]2C(=O)O[C@H]([C@H](C)C[C@@H]2CC[C@@H](OP(C)(C)=O)[C@H](OC)C2)CC(=O)[C@H](C)/C=C(\C)[C@@H](O)[C@@H](OC)C(=O)[C@H](C)C[C@H](C)/C=C/C=C/C=C/1C [RIDAFOROLIMUS] | > 30 µM (inactive) | > 30 µM (inactive) | > 30 µM (inactive) | > 30 µM (inactive) | > 30 µM (inactive) | > 30 µM (inactive) | > 30 µM (inactive) | > 30 µM (inactive) | > 30 µM (inactive)
2 | COCC(=O)NC/C=C/c1ccc2ncnc(Nc3ccc(Oc4ccc(C)nc4)c(C)c3)c2c1 [CP-724714] | > 30 µM (inactive) | > 30 µM (inactive) | > 30 µM (inactive) | > 30 µM (inactive) | > 30 µM (inactive) | > 30 µM (inactive) | > 30 µM (inactive) | > 30 µM (inactive) | > 30 µM (inactive)
3 | CNC(=O)c1nn(C)c2c1C(C)(C)Cc1cnc(Nc3ccc(N4CCN(C)CC4)cc3)nc1-2 [MILCICLIB] | > 30 µM (inactive) | > 30 µM (inactive) | 14 µM (active) | 3.44 µM (active) | > 30 µM (inactive) | > 30 µM (inactive) | > 30 µM (inactive) | > 30 µM (inactive) | 1.75 µM (active)
4 | COc1ncc(-c2ccc3nccc(-c4ccnnc4)c3c2)cc1NS(=O)(=O)c1ccc(F)cc1F [OMIPALISIB] | > 30 µM (inactive) | > 30 µM (inactive) | > 30 µM (inactive) | > 30 µM (inactive) | > 30 µM (inactive) | > 30 µM (inactive) | > 30 µM (inactive) | > 30 µM (inactive) | > 30 µM (inactive)
5 | Cc1cnc(NC(=O)Nc2cc(Br)c(C)cc2OC[C@@H]2CNCCO2)cn1 [RABUSERTIB] | > 30 µM (inactive) | > 30 µM (inactive) | > 30 µM (inactive) | > 30 µM (inactive) | > 30 µM (inactive) | > 30 µM (inactive) | > 30 µM (inactive) | > 30 µM (inactive) | > 30 µM (inactive)
6 | C[C@@H](Oc1cc(C(=O)Nc2ccc(C(=O)N3CCN(C)CC3)cc2)nnc1N)c1c(Cl)ccc(F)c1Cl | > 30 µM (inactive) | > 30 µM (inactive) | 0.122 µM (active) | > 30 µM (inactive) | > 30 µM (inactive) | > 30 µM (inactive) | > 30 µM (inactive) | > 30 µM (inactive) | > 30 µM (inactive)
7 | Cc1cccc(-c2nn3c(c2-c2ccnc4ccc(C(N)=O)cc24)CCC3)n1 [GALUNISERTIB] | > 30 µM (inactive) | > 30 µM (inactive) | > 30 µM (inactive) | > 30 µM (inactive) | > 30 µM (inactive) | > 30 µM (inactive) | > 30 µM (inactive) | > 30 µM (inactive) | > 30 µM (inactive)
8 | COCc1c(-c2ccc(NC(=O)Nc3cc(C(F)(F)F)ccc3F)c(F)c2)c2c(N)ncnn2c1CN1CCOCC1 | > 30 µM (inactive) | > 30 µM (inactive) | 4.16 µM (active) | > 30 µM (inactive) | > 30 µM (inactive) | > 30 µM (inactive) | 4.13 µM (active) | > 30 µM (inactive) | > 30 µM (inactive)
9 | Nc1ncnc2c1c(-c1cccc(OCc3ccccc3)c1)cn2[C@H]1C[C@@H](CN2CCC2)C1 [AEW-541] | > 30 µM (inactive) | > 30 µM (inactive) | 4.58 µM (active) | > 30 µM (inactive) | > 30 µM (inactive) | > 30 µM (inactive) | > 30 µM (inactive) | > 30 µM (inactive) | > 30 µM (inactive)
10 | CN1CCN(CCOc2cc(OC3CCOCC3)c3c(Nc4c(Cl)ccc5c4OCO5)ncnc3c2)CC1 [SARACATINIB] | > 30 µM (inactive) | > 30 µM (inactive) | > 30 µM (inactive) | > 30 µM (inactive) | > 30 µM (inactive) | > 30 µM (inactive) | > 30 µM (inactive) | > 30 µM (inactive) | > 30 µM (inactive)
11 | CNC(=O)c1cc(Oc2ccc(NC(=O)Nc3cc(C(C)(C)C)nn3-c3ccc4ncccc4c3)c(F)c2)ccn1 [REBASTINIB] | > 30 µM (inactive) | > 30 µM (inactive) | 1.06 µM (active) | > 30 µM (inactive) | > 30 µM (inactive) | > 30 µM (inactive) | > 30 µM (inactive) | > 30 µM (inactive) | > 30 µM (inactive)
12 | COc1ccc(S(=O)(=O)N(C(C)=O)c2ccccc2/C=C/c2cc[n+]([O-])cc2)cc1 [HMN-214] | > 30 µM (inactive) | > 30 µM (inactive) | > 30 µM (inactive) | > 30 µM (inactive) | > 30 µM (inactive) | > 30 µM (inactive) | > 30 µM (inactive) | > 30 µM (inactive) | > 30 µM (inactive)
13 | COc1cc2c(Nc3ccc(Cl)c(Cl)c3F)ncnc2cc1OC[C@@H]1C[C@@H]2CN(C)C[C@@H]2C1 [TESEVATINIB] | > 30 µM (inactive) | > 30 µM (inactive) | > 30 µM (inactive) | > 30 µM (inactive) | > 30 µM (inactive) | > 30 µM (inactive) | > 30 µM (inactive) | > 30 µM (inactive) | > 30 µM (inactive)
